Measurements: patent publication US20260306429A1, “COMPOSITION FOR REDUCING METHANE PRODUCTION AND IMPROVING NITROGEN UTILIZATION EFFICIENCY OF RUMINANT ANIMALS COMPRISING HALOACETAMIDE AS ACTIVE INGREDIENT” (CHUNGANG UNIVERSITY INDUSTRY ACADEMIC COOPERATION FOUNDATION, priority 2024, published 2026)

How the values were obtained:
[1] = in words; cited from earlier work
rumen fluid = assay: In vitro incubation of rumen fluid: digestibility, fermentation characteristics, gas and methane production, VFA; format: cell-based, Hanwoo cows; conditions: 0.2 mmol/L; for A:P ratio (acetate:propionate ratio) / DMD (dry matter digestibility) / NDFD (neutral detergent fiber digestibility) / NH3—N (ammonia nitrogen) / pH / Acetate / Butyrate / Isobutyrate / Isovalerate / Propionate / Valerate / Total VFA (total volatile fatty acids) / methane-reducing effects: 24 h; for CH4 (methane production per gram of degraded dry matter) / CH4 (methane production) / TGP (total gas production): up to 24 h; for methane-reducing effects: in words, from Table 1
Protocol: (§1) Rumen fluid was sampled from Hanwoo cows at the Nonghyup Research Farm in Anseong, Gyeonggi Province, and mixed with buffer at a ratio of 1:2 within 1 hour of sampling. Oat hay was used as the forage, and pelleted feed for the middle fattening period was used as the concentrate. After grinding, the forage and concentrate were mixed at a ratio of 1:1 after passing through a 1-mm screen. 50 ml of culture medium was dispensed into 0.5 g of dry matter, and the control group and the five experimental groups (acrylamide, chloroacetamide, glycolamide, iodoacetamide, and propionamide) were each incubated for 24 hours with five replicates. The control group was incubated in 50 mL of culture medium, whereas the experimental groups were incubated in 49.9 mL of culture medium plus 0.1 mL of deionized water. For the five experimental groups, the supplementation level of each amide was set to 0.2 mmol/L (final concentration), and the amounts added were 1.4216 mg/g for acrylamide, 1.8702 mg/g for 2-chloroacetamide, 1.4618 mg/g for propionamide, 1.5014 mg/g for glycolamide, and 3.6992 mg/g for iodoacetamide.
(§2) Gas pressure was measured at 0, 3, 6, 12, and 24 hours (gas collection intervals), and the gas released during each measurement was collected to determine the total gas production and methane production up to the final 24 hours. After completing the 24-hour incubation, pH, ammonia nitrogen (NH3—N), dry matter digestibility, neutral detergent fiber digestibility, volatile fatty acids (VFA), and the microbiome were analyzed.
(§3) Data conforming to normal distribution and homogeneity of variance were analyzed using the GLIMMIX procedure of SAS and Tukey's HSD test. […] Differences in the overall bacteriota and their functional profiles were analyzed using PERMANOVA. Differentially abundant microbial biomarkers were identified using multivariable association analysis with the MaAsLin2 R package, based on relatively abundant bacterial taxa and predicted microbial functions.

Total bacteria = assay: qPCR absolute quantification of total bacteria after in vitro rumen incubation; format: cell-based, rumen fluid of Hanwoo cows; conditions: 0.2 mmol/L, 24 h
Protocol: as §1, §2
(§4) Metagenomic DNA was extracted using the RBB+C method, followed by qPCR analysis and microbiome analysis. Microbial functions were predicted using PICRUSt2. Taxonomic drivers of differentially enriched MetaCyc pathways were identified using Fish Taco (Functional Shifts' Taxonomic Contributor).
as §3
(§5) For the control group and the five experimental groups (acrylamide, chloroacetamide, glycolamide, iodoacetamide, and propionamide), the effects of the amide compounds on the absolute quantification of total bacteria, methanogens, protozoa, and specific cellulolytic bacterial species (Fibrobacter succinogenes, Ruminococcus flavefaciens, Ruminococcus albus, and Prevotella ruminicola) are presented in Table 3 below as quantitative real-time PCR data.

Total methanogen = assay: qPCR absolute quantification of methanogens after in vitro rumen incubation; format: cell-based, rumen fluid of Hanwoo cows; conditions: 0.2 mmol/L, 24 h
Protocol: as §1, §2, §4, §3, §5

Total protozoa = assay: qPCR absolute quantification of protozoa after in vitro rumen incubation; format: cell-based, rumen fluid of Hanwoo cows; conditions: 0.2 mmol/L, 24 h
Protocol: as §1, §2, §4, §3, §5

Fibrobacter succinogenes = assay: qPCR absolute quantification of Fibrobacter succinogenes after in vitro rumen incubation; format: cell-based; conditions: 0.2 mmol/L, 24 h
Protocol: as §1, §2, §4, §3, §5

[2] = tested on: Ruminococcus flavefaciens; assay: qPCR absolute quantification of Ruminococcus flavefaciens after in vitro rumen incubation; format: cell-based; conditions: 0.2 mmol/L, 24 h
Protocol: as §1, §2, §4, §3, §5

Ruminococcus albus = assay: qPCR absolute quantification of Ruminococcus albus after in vitro rumen incubation; format: cell-based; conditions: 0.2 mmol/L, 24 h
Protocol: as §1, §2, §4, §3, §5

Prevotella ruminicola = assay: qPCR absolute quantification of Prevotella ruminicola after in vitro rumen incubation; format: cell-based; conditions: 0.2 mmol/L, 24 h
Protocol: as §1, §2, §4, §3, §5

rumen microbiome = assay: Alpha-diversity measurements of the rumen microbiome; format: cell-based, rumen fluid of Hanwoo cows; conditions: 0.2 mmol/L, 24 h
Protocol: as §1, §2, §4, §3
The alpha-diversity measurements for the control group and the five experimental groups (acrylamide, chloroacetamide, glycolamide, iodoacetamide, and propionamide) are presented in Table 4 below.

rumen microbiota = assay: Differentially abundant genera and species in response to haloacetamide treatment; taxonomic drivers; format: cell-based, rumen fluid of Hanwoo cows; conditions: in words
Protocol: Rumen fluid was sampled from Hanwoo cows at the Nonghyup Research Farm in Anseong, Gyeonggi Province, and mixed with buffer at a ratio of 1:2 within 1 hour of sampling. Oat hay was used as the forage, and pelleted feed for the middle fattening period was used as the concentrate. After grinding, the forage and concentrate were mixed at a ratio of 1:1 after passing through a 1-mm screen. 50 ml of culture medium was dispensed into 0.5 g of dry matter, and the control group and the five experimental groups (acrylamide, chloroacetamide, glycolamide, iodoacetamide, and propionamide) were each incubated for 24 hours with five replicates. […]
as §2, with “analyzed. […]” for “analyzed.”
Data conforming to normal distribution and homogeneity of variance were analyzed using the GLIMMIX procedure of SAS and Tukey's HSD test. […] Differences in the overall bacteriota and their functional profiles were analyzed using PERMANOVA. […]

Structure (SMILES)	A:P ratio (acetate:propionate ratio) (rumen fluid)	DMD (dry matter digestibility) (rumen fluid)	NDFD (neutral detergent fiber digestibility) (rumen fluid)	NH3—N (ammonia nitrogen) (rumen fluid)	pH (rumen fluid)	Acetate (rumen fluid; VFA composition)	Butyrate (rumen fluid; VFA composition)	Isobutyrate (rumen fluid; VFA composition) [%]	Isovalerate (rumen fluid; VFA composition)	Propionate (rumen fluid; VFA composition)	Valerate (rumen fluid; VFA composition)	Acetate (rumen fluid; concentration)	Butyrate (rumen fluid; concentration)	Isobutyrate (rumen fluid; concentration)	Isovalerate (rumen fluid; concentration)	Propionate (rumen fluid; concentration)	Total VFA (total volatile fatty acids) (rumen fluid; concentration)	Valerate (rumen fluid; concentration) [mM]	CH4 (methane production per gram of degraded dry matter) (rumen fluid)	CH4 (methane production) (rumen fluid)	further results
O=[N+]([O-])OCCCO [3-NOP, 3-nitrooxypropanol]																					toxicity / safety [1]: issues related to residues in the animal body and safety
C=CC(N)=O [AA, acrylamide]	3.03^A	78.14^AB %	42.04^B %	16.61^A mg/dL	6.21	61.85^A %	13.87^B %	0.88	1.23^ABC %	20.42^C %	1.76^B %	43.81^A mM	9.82^AB mM	0.62^A mM	0.87^A mM	14.45^AB mM	70.82^A mM	1.24	29.06^A mL/g dDM	11.35^A mL	TGP (total gas production) (rumen fluid): 145.83^A mL; Total bacteria (absolute quantification, qPCR) (Total bacteria): 10.30^AB; Total methanogen (absolute quantification, qPCR) (Total methanogen): 8.38^A; Total protozoa (absolute quantification, qPCR) (Total protozoa): 9.78; Fibrobacter succinogenes (absolute quantification, qPCR) (Fibrobacter succinogenes): 9.39^C; Ruminococcus flavefaciens (absolute quantification, qPCR) [2]: 8.31^B; Ruminococcus albus (absolute quantification, qPCR) (Ruminococcus albus): 7.77^B; Prevotella ruminicola (absolute quantification, qPCR) (Prevotella ruminicola): 9.44^C; Chao1 (rumen microbiome): 284.8^B; Evenness (rumen microbiome): 0.8823^B; Observed features (rumen microbiome): 284.8^B; Shannon (rumen microbiome): 7.1896^B; Simpson (rumen microbiome): 0.9883^B
NC(=O)CCl [CLA, 2-chloroacetamide]	2.34^B	77.82^AB %	43.61^B %	13.90^B mg/dL	6.19	55.96^B %	16.30^A %	0.80	1.09^BC %	23.89^B %	1.95^AB %	35.41^BC mM	10.25^A mM	0.50^BC mM	0.68^B mM	15.07^AB mM	63.14^AB mM	1.22	10.71^C mL/g dDM	4.17^C mL	methane-reducing effects (rumen fluid): excellent methane-reducing effects; TGP (total gas production) (rumen fluid): 134.49^B mL; Total bacteria (absolute quantification, qPCR) (Total bacteria): 10.28^B; Total methanogen (absolute quantification, qPCR) (Total methanogen): 8.05^AB; Total protozoa (absolute quantification, qPCR) (Total protozoa): 9.77; Fibrobacter succinogenes (absolute quantification, qPCR) (Fibrobacter succinogenes): 9.54^B; Ruminococcus flavefaciens (absolute quantification, qPCR) [2]: 8.27^B; Ruminococcus albus (absolute quantification, qPCR) (Ruminococcus albus): 7.96^A; Prevotella ruminicola (absolute quantification, qPCR) (Prevotella ruminicola): 9.58^B; Chao1 (rumen microbiome): 382.3^AB; Evenness (rumen microbiome): 0.8847^AB; Observed features (rumen microbiome): 380.8^AB; Shannon (rumen microbiome): 7.5719^AB; Simpson (rumen microbiome): 0.9903^AB; differentially abundant bacteria (rumen microbiota): increases bacteria belonging to the genera Fibrobacter, Anaeroplasma, Treponema, and Succinivibrio, and the species Ruminococcus albus
NC(=O)CO [GA, glycolamide]	2.92^A	79.40^A %	40.82^B %	14.76^AB mg/dL	6.22	60.74^A %	14.30^B %	0.93	1.32^A %	20.83^C %	1.88^AB %	37.24^ABC mM	8.74^B mM	0.57^AB mM	0.80^A mM	12.77^B mM	61.27^AB mM	1.15	26.85^B mL/g dDM	10.65^B mL	TGP (total gas production) (rumen fluid): 141.74^A mL; Total bacteria (absolute quantification, qPCR) (Total bacteria): 10.25^B; Total methanogen (absolute quantification, qPCR) (Total methanogen): 8.33^A; Total protozoa (absolute quantification, qPCR) (Total protozoa): 9.69; Fibrobacter succinogenes (absolute quantification, qPCR) (Fibrobacter succinogenes): 9.36^C; Ruminococcus flavefaciens (absolute quantification, qPCR) [2]: 8.29^B; Ruminococcus albus (absolute quantification, qPCR) (Ruminococcus albus): 7.71^B; Prevotella ruminicola (absolute quantification, qPCR) (Prevotella ruminicola): 9.42^C; Chao1 (rumen microbiome): 436.4^AB; Evenness (rumen microbiome): 0.8956^A; Observed features (rumen microbiome): 435.6^AB; Shannon (rumen microbiome): 7.8466^A; Simpson (rumen microbiome): 0.9927^A
NC(=O)CI [IA, iodoacetamide]	1.89^C	76.18^B %	47.83^A %	13.16^B mg/dL	6.19	52.09^C %	16.51^A %	0.76	1.02^C %	27.56^A %	2.06^A %	29.92^C mM	9.45^AB mM	0.43^C mM	0.58^B mM	15.80^A mM	59.25^B mM	1.18	0.60^D mL/g dDM	0.23^D mL	methane-reducing effects (rumen fluid): excellent methane-reducing effects; TGP (total gas production) (rumen fluid): 129.37^B mL; Total bacteria (absolute quantification, qPCR) (Total bacteria): 10.38^A; Total methanogen (absolute quantification, qPCR) (Total methanogen): 7.74^B; Total protozoa (absolute quantification, qPCR) (Total protozoa): 9.68; Fibrobacter succinogenes (absolute quantification, qPCR) (Fibrobacter succinogenes): 9.79^A; Ruminococcus flavefaciens (absolute quantification, qPCR) [2]: 8.51^A; Ruminococcus albus (absolute quantification, qPCR) (Ruminococcus albus): 7.83^AB; Prevotella ruminicola (absolute quantification, qPCR) (Prevotella ruminicola): 9.72^A; Chao1 (rumen microbiome): 525.3^A; Evenness (rumen microbiome): 0.8895^AB; Observed features (rumen microbiome): 520.6^A; Shannon (rumen microbiome): 8.0215^A; Simpson (rumen microbiome): 0.9925^A; differentially abundant bacteria (rumen microbiota): increases bacteria belonging to the genera Fibrobacter, Pseudobutyrivibrio, and Treponema, and the species Ruminococcus flavefaciens
CCC(N)=O [PA, propionamide]	2.96^A	78.34^AB %	41.80^B %	16.50^A mg/dL	6.22	60.97^A %	14.31^B %	0.92	1.30^AB %	20.64^C %	1.86^AB %	38.55^AB mM	9.04^AB mM	0.58^AB mM	0.82^A mM	13.04^B mM	63.20^AB mM	1.17	28.32^AB mL/g dDM	11.09^AB mL	TGP (total gas production) (rumen fluid): 143.63^A mL; Total bacteria (absolute quantification, qPCR) (Total bacteria): 10.27^B; Total methanogen (absolute quantification, qPCR) (Total methanogen): 8.42^A; Total protozoa (absolute quantification, qPCR) (Total protozoa): 9.79; Fibrobacter succinogenes (absolute quantification, qPCR) (Fibrobacter succinogenes): 9.35^C; Ruminococcus flavefaciens (absolute quantification, qPCR) [2]: 8.31^B; Ruminococcus albus (absolute quantification, qPCR) (Ruminococcus albus): 7.71^B; Prevotella ruminicola (absolute quantification, qPCR) (Prevotella ruminicola): 9.45^C; Chao1 (rumen microbiome): 406.2^AB; Evenness (rumen microbiome): 0.8873^AB; Observed features (rumen microbiome): 405.6^AB; Shannon (rumen microbiome): 7.6692^A; Simpson (rumen microbiome): 0.9913^AB
BrC(Br)Br [bromoform]																					toxicity / safety [1]: carcinogenic substance
